From patent publication US20220363710A1, “SMALL-MOLECULE COMPOUND HAVING A2A ADENOSINE RECEPTOR ANTAGONISM” (ACADEMY OF MILITARY MEDICAL SCIENCES, priority 2019, published 2022)
Like-named read-outs stand apart in the source and are kept apart here.

Columns and labels:
[1] = biological target: human adenosine receptor A2A (Homo sapiens, UniProt P29274); assay: A2A adenosine receptor cAMP test (LANCE Ultra cAMP, hADORA2A-HEK293 cells); assay type: cell-based
Excerpt: A2A Adenosine Receptor cAMP Test
Experimental reagents and consumables: DMEM/F12, G418, Penicillin-Streptomycin, Versene Solution, HEPES, Hank's Buffered Saline Solution, PBS (pH 7.4, 1×, sterile), FBS, BSA Stabilizer 7.5%, Rolipram, NECA were separately purchased from Gibico, Hyclone and Sigma. LANCE® Ultra cAMP kit (Eu-cAMP tracer, Ulight-anti-cAMP reagent, cAMP detection buffer) and hADORA2A-HEK293 cells were purchased from PerkinElmer Research Products (Boston, Mass.). All other reagents were of analytical grade and obtained from commercial sources. 384-well polypropylene microplate and 384-well solid white plate were purchased from Labcyte and Corning, respectively.
Experimental instruments: TECAN automated liquid handling workstation, Echo Acoustic Liquid Handler and EnVison multimode plate reader were purchased from TECAN, Labcyte and […], respectively.
The cells stably expressing human adenosine receptor A2A (hADORA2A-HEK293 cells) were cultured in DMEM/F12 medium containing 10% FBS, 1× Penicillin-Streptomycin and 400 μg/ml G418 in a 37° C. and 5% CO2 environment. Before the experiment, the cells were digested with Versene solution, and the cells were collected by centrifugation at 200 g and room temperature for 5 minutes, and finally resuspended with assay buffer (Hank's buffered saline solution, containing 5 mM HEPES, 0.1% BSA stabilizer and 10 μM Rolipram, pH 7.4). The TECAN automated liquid handling workstation was used to dilute the compound in a 384-well polypropylene microplate with DMSO to 11 concentration points in a 3-fold gradient to prepare the compound source plate, in which the 11 concentration points of the compound were 10 mM, 3.33 mM, 1.11 mM., 0.37 mM, 0.12 mM, 0.041 mM, 0.013 mM, 4.57×10^−3 mM, 1.52×10^−3 mM, 5×10−4 mM and 1.7×10^−4 mM. The Echo Acoustic Liquid Handler (Labcyte) was used to transfer the test compound from the compound source plate to an assay plate, in which the transfer volume of the compound was 10 nl/well. The hADORA2A-HEK293 cell suspension was diluted with assay buffer to 30,000 cells/ml, and the cell suspension was transferred to the assay plate at a volume of 10 μl/well (300 cells/well). The assay plate was centrifuged at 150 g for 1 minute and pre-incubated at room temperature for 30 minutes. The Eu-cAMP tracer working solution (Eu-cAMP tracer 40 μl, cAMP detection buffer 1.96 ml) (5 μl/well) was added to the assay plate, and then the Ulight-anti-cAMP working solution (13 μl of Ulight-anti-cAMP reagent and 1.95 ml of cAMP detection buffer) (5 μl/well) was added to the assay plate. The assay plate was rotated at 150 g for 30 seconds and incubated at room temperature for 30 minutes. The EnVison multimode plate reader (PerkinElmer) was used determine the level of cyclic adenosine monophosphate in the final solution (λex=320 nm, λem=665 nm & 615 nm). The EC50 (nM) value of the compound interacting with the A2A adenosine receptor to stimulate the production of cyclic adenosine monophosphate was calculated and the titer of the compound function was expressed as the EC50 (nM) value.
When the test compounds interacted with A2AAR, the EC50 (nM) values for stimulating the production of cyclic AMP were shown in Table 2.

[2] = biological target: T1, (human) A2A adenosine receptor (Homo sapiens, UniProt P29274); assay: Radioligand binding test ([3H]CGS21680 displacement, hA2A HEK-293 cell membranes); conditions: for IC50: [3H]-CGS 21680 25 nM, hA2A HEK-293 cell membrane, 25° C., 90 minutes, read-out: IC50 (nM), compounds binding to A2A adenosine receptor; for Ki: read-out: Ki (nM), inhibition constant for binding to A2A adenosine receptor
T1 construct: purchased PerkinElmer Research Products (Boston, Mass.); host or cells: HEK-293 cells, stably transfected; membrane preparation
Experimental: Cell membranes stably transfected with (human) A2A adenosine receptor were prepared in HEK-293 cells. The cell membranes were obtained from PerkinElmer Research Products (Boston, Mass.).
CGS 21680 (2-[p-(2-carboxyethyl)phenylethylamino]-5′-ethylcarboxamidoadenosine) was purchased from Selleck (Shanghai, CN).
The A2A adenosine receptors used were all expressed in the cell membranes. The compound was diluted 3 times serially with DMSO (Solarbio, D8371-250 ml) to generate compound source plates with 10 different concentrations (10 μM, 3.3 μM, 1.1 μM, 0.37 μM, 0.12 μM, 0.0412 μM, 0.0137 μM, 0.0046 μM, 0.0015 μM, 0.0005 μM), 250 nL of compound was added to 384-well Opti-plate, sealed with parafilm. […] (final 25 nM) was added to the diluted cell membrane and mixed well. 50 μL of the prepared dilution solution of cell membrane was transferred to the 384-well Opti-plate containing compound and incubated at 25° C. for 90 minutes. 100 μL of 0.5% Polyethyleneimine solution (PEI) was added to […]-96 GF/B filter plate, and soaked for 90 minutes at 4° C., then 500 μL of washing buffer/well (50 mM Tris-HCl, pH 7.4, 154 mM NaCl) was transferred with Cell Harvester to wash the […]-96 GF/B filter plate twice. The mixed system in the Opti-plate was transferred to the washed […]-96 GF/B filter plate, 500 μL of washing buffer/well (50 mM Tris-HCl, pH 7.4, 154 mM NaCl) was used to wash the […]-96 GF/B filter plate 9 times. Incubation was performed at 37° C. for 3 minutes. 40 μL of ULTIMA GOLD scintillation solution (Perkin Elmer, Cat #77-16061) was added to each well, CPM (count per minute) value was read by a MicroBeta liquid scintillation counter (PerkinElmer).

[3] = stimulating the production of cyclic AMP, read-out: cAMP EC50
[4] = stimulating the production of cyclic adenosine monophosphate, read-out: cAMP EC50 values

Chain of human adenosine receptor A2A (P29274 whole entry): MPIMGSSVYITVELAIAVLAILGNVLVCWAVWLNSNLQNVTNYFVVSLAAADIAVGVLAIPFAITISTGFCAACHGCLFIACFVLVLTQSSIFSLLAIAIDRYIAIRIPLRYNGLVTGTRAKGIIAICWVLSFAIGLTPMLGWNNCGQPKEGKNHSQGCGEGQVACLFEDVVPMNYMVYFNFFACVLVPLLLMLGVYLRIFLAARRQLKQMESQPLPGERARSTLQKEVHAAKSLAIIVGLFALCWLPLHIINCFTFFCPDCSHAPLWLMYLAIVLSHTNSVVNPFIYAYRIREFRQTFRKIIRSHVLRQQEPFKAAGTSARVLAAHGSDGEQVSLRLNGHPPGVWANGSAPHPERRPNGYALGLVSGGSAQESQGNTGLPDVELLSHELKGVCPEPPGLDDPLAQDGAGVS
T1 sequence (P29274 whole entry): as above

SMILES | melting point | agonistic activity at hA2AAR (cAMP production) [1] | EC50 [1, 3] | EC50 [1, 4] | IC50 [2] | Ki [2]
CC(=O)Nc1ccc(-c2nnc3c4ncn([C@@H]5O[C@H](CO)[C@@H](O)[C@H]5O)c4ncn23)cc1 [Compound 1, N-{4-{7-[(2R,3R,4S,5R)-3,4-dihydroxy-5-(hydroxymethyl)tetrahydrofuran-2-yl]-7H-[1,2,4]triazolo[3,4-i]purin-3-yl}phenyl}acetamide] | 132 °C | no agonistic activity | > 10 µM | > 10 µM | 6.4 nM | 3 nM
OC[C@H]1O[C@@H](n2cnc3c2ncn2c(C4CCCC4)nnc32)[C@H](O)[C@@H]1O [Compound 2, (2R,3R,4S,5R)-2-{3-cyclopentyl-7H-[1,2,4]triazolo[3,4-i]purin-7-yl}-5-(hydroxymethyl)tetrahydrofuran-3,4-diol] | 84 °C | no agonistic activity | > 10 µM | > 10 µM | 3.9 nM | 1.8 nM
OC[C@H]1O[C@@H](n2cnc3c2ncn2c(-c4ccc(OCc5ccccc5)c(OCc5ccccc5)c4)nnc32)[C@H](O)[C@@H]1O [Compound 3, (2R,3R,4S,5R)-2-{3-[3,4-di(benzyloxy)phenyl]-7H-[1,2,4]triazolo[3,4-i]purin-7-yl}-5-(hydroxymethyl)tetrahydrofuran-3,4-diol] | 116 °C |  |  |  | > 10000 nM | > 10000 nM
OC[C@H]1O[C@@H](n2cnc3c2ncn2c(-c4ccc(OCc5ccc(F)cc5)cc4)nnc32)[C@H](O)[C@@H]1O [Compound 4, (2R,3R,4S,5R)-2-{3-{4-[(4-fluorobenzyl)oxy]phenyl}-7H-[1,2,4]triazolo[3,4-i]purin-7-yl}-5-(hydroxymethyl)tetrahydrofuran-3,4-diol] | 112 °C | no agonistic activity | > 10 µM | > 10 µM | 3.9 nM | 1.8 nM
OC[C@H]1O[C@@H](n2cnc3c2ncn2c(-c4cccc(OCc5ccccc5)c4)nnc32)[C@H](O)[C@@H]1O [Compound 5, (2R,3R,4S,5R)-2-{3-[3-(benzyloxy)phenyl]-7H-[1,2,4]triazolo[3,4-i]purin-7-yl}-5-(hydroxymethyl)tetrahydrofuran-3,4-diol] | 76 °C | no agonistic activity | > 10 µM | > 10 µM | 6.2 nM | 2.9 nM
OC[C@H]1O[C@@H](n2cnc3c2ncn2c(-c4ccc(C(F)(F)F)cc4C(F)(F)F)nnc32)[C@H](O)[C@@H]1O [Compound 6, (2R,3R,4S,5R)-2-{3-[2,4-di(trifluoromethyl)phenyl]-7H-[1,2,4]triazolo[3,4-i]purin-7-yl}-5-(hydroxymethyl)tetrahydrofuran-3,4-diol] |  |  |  |  | > 10000 nM | > 10000 nM
OC[C@H]1O[C@@H](n2cnc3c2ncn2c(-c4ccc(-c5ccccn5)cc4)nnc32)[C@@H](O)[C@H]1O [Compound 7, (2R,3S,4R,5R)-2-{3-[4-(pyridin-2-yl)phenyl]-7H-[1,2,4]triazolo[3,4-i]purin-7-yl}-5-(hydroxymethyl)tetrahydrofuran-3,4-diol] | 172 °C |  |  |  | > 10000 nM | > 10000 nM
OC[C@H]1O[C@@H](n2cnc3c2ncn2c(-c4ccc(-c5ccccc5)cc4)nnc32)[C@H](O)[C@@H]1O [Compound 8, (2R,3R,4S,5R)-2-{3-{[1,1′-biphenyl]-4-yl}-7H-[1,2,4]triazolo[3,4-i]purin-7-yl}-5-(hydroxymethyl)tetrahydrofuran-3,4-diol] | 280 °C |  |  |  | 7510 nM | 3510 nM
CCCOc1ccc(-c2nnc3c4ncn([C@@H]5O[C@H](CO)[C@H](O)[C@@H]5O)c4ncn23)cc1 [Compound 9, (2R,3S,4R,5R)-2-{3-(4-propoxyphenyl)-7H-[1,2,4]triazolo[3,4-i]purin-7-yl}-5-(hydroxymethyl)tetrahydrofuran-3,4-diol] | 118 °C | no agonistic activity | > 10 µM | > 10 µM | 4.3 nM | 2 nM
OC[C@H]1O[C@@H](n2cnc3c2ncn2c(-c4ccc(C(F)(F)F)cc4)nnc32)[C@@H](O)[C@H]1O [Compound 10, (2R,3S,4R,5R)-2-{3-[4-(trifluoromethyl)phenyl]-7H-[1,2,4]triazolo[3,4-i]purin-7-yl}-5-(hydroxymethyl)tetrahydrofuran-3,4-diol] | 124 °C |  |  |  | > 10000 nM | > 10000 nM
OC[C@H]1O[C@@H](n2cnc3c2ncn2c(-c4ccc(Br)cn4)nnc32)[C@H](O)[C@@H]1O [Compound 11, (2R,3R,4S,5R)-2-{3-(5-bromopyridin-2-yl)-7H-[1,2,4]triazolo[3,4-i]purin-7-yl}-5-(hydroxymethyl)tetrahydrofuran-3,4-diol] | 222 °C |  |  |  | > 10000 nM | > 10000 nM
OC[C@H]1O[C@@H](n2cnc3c2ncn2c(-c4cncs4)nnc32)[C@@H](O)[C@H]1O [Compound 12, (2R,3S,4R,5R)-2-{3-(thiazol-5-yl)-7H-[1,2,4]triazolo[3,4-i]purin-7-yl}-5-(hydroxymethyl)tetrahydrofuran-3,4-diol] | 216 °C | no agonistic activity | > 10 µM | > 10 µM | 3.9 nM | 1.8 nM
OC[C@H]1O[C@@H](n2cnc3c2ncn2c(C4CCCCC4)nnc32)[C@H](O)[C@@H]1O [Compound 13, (2R,3R,4S,5R)-2-{3-cyclohexyl-7H-[1,2,4]triazolo[3,4-i]purin-7-yl}-5-(hydroxymethyl)tetrahydrofuran-3,4-diol] | 130 °C |  |  |  | > 10000 nM | > 10000 nM
